In patent US20210387983A1, “CRYSTALLINE ALK5 INHIBITORS AND USES THEREOF” (THERAVANCE BIOPHARMA R&D IP, LLC, priority 2020, published 2021):

Key:
[1] = tested on: DSS-induced intestinal fibrosis; assay: Prophylactic study in murine DSS-induced intestinal fibrosis model; assay type: in vivo, C57BL/6J mice; settings: oral gavage starting on day one of DSS administration; sacrifice 9 weeks
Procedure: The compound of Formula I is expected to slow, halt or reverse the progression of intestinal fibrosis in a murine colitis model. Six to 8-week old male C57BL/6J mice are tagged and weighed. The drinking water of the animals is treated with 2.5% dextran sulfate sodium (DSS) for 7 days to induce acute colitis, followed by 2 days of normal drinking water. Three, 3-week cycles of 2.5% DSS treatment (1 week of 2.5% DSS in water; 2 weeks of normal water) are then completed to induce intestinal fibrosis. Starting on day one of DSS administration, mice are treated with either vehicle control or the compound of Formula I at an appropriate amount and frequency via oral gavage (e.g., once daily). The animals are sacrificed 9 weeks after the first DSS administration, then distal, mid and proximal sections of the colon harvested for histologic analysis, RNA extraction and cytokine measurement.

[2] = tested on: intestinal fibrosis in an adoptive T-cell transfer model of colitis; assay: Efficacy study in adoptive T-cell transfer model of colitis; assay type: in vivo, CB17 SCID mice; settings: oral gavage once diarrhea and 10% body weight decrease observed; sacrifice 45 days after induction
Procedure: The compound of Formula I is expected to slow, halt or reverse the progression of intestinal fibrosis in an adoptive T-cell transfer model of colitis. Six- to 8-week old female CB17 SCID mice are tagged and weighed, then administered CD4^+ CD25^− CD62L^+ naïve T cells isolated from the spleens of Balb/C mice (IP; 1×10^6 cells) to induce colitis. Once diarrhea and a 10% or greater decrease in body weight are observed (typically around week 2), mice are treated with either vehicle control or the compound of Formula I at an appropriate amount and frequency via oral gavage (e.g., once daily). Animals are sacrificed 45 days after induction of colitis, then distal, mid and proximal sections of the colon harvested for histologic analysis, RNA extraction and cytokine measurement.

[3] = target: T1, recombinant human ALK5 (TGF-βR1) protein (Homo sapiens, UniProt P36897); assay: Biochemical ALK5 (TGF-βR1) assay to measure pKi (LANCE Ultra ULight kinase assay); settings: apparent pKi, converted from pIC50 using the Cheng-Prusoff equation
T1 construct: purchased Life Technologies PR9075A
T1 sequence (P36897 34-503): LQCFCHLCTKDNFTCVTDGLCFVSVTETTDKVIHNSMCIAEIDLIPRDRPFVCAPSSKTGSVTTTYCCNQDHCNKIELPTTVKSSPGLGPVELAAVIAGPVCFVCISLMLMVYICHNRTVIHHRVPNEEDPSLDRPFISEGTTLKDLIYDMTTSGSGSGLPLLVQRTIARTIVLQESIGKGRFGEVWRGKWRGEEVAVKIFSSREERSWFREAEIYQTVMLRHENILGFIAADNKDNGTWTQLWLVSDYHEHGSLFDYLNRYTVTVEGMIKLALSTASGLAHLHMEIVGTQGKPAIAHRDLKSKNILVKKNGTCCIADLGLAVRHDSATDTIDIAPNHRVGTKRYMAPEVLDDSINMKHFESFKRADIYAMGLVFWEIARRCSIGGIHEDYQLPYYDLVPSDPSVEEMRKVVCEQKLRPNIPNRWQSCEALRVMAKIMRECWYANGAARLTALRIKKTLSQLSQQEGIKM
Procedure: The assays were performed in a 384-well plate (24 columns×16 wells/rows). An Echo®550 Liquid Handler (Labcyte) was used to prepare various intermediate concentrations of the compound of Formula I in 100% DMSO. From the intermediate concentrations, a range of concentrations (from 10 μM to […] corresponding to volumes up to 105 nL) were prepared and ejected into a final assay plate to be used to create individual dose response curves. To a separate column within the assay plate, 105 nL of DMSO in each well was used to establish a maximum assay signal. […]
Next, 2 μL of 125 μM ATP (5× final, 125 μM ATP prepared in assay buffer with 2 mM DTT) was added to the incubated mixtures, covered with a MicroClime® Environmental Lid (Product No. LLS-0310, Labcyte) and immediately transferred to 37° C. […] The plate was then read on a Perkin Elmer EnVision Plate Reader using europium specific reader settings with excitation and emission wavelengths set to 320 or 340 nm and 665 nm, respectively.
For dose-response analyses, percent inhibition versus compound concentrations were plotted, and pIC50 values were determined from a 4-parameter robust fit model with GraphPad Prism V5 Software (GraphPad Software, Inc., La Jolla, Calif.). […] Results were expressed as pIC50 (negative logarithm of IC50) and subsequently converted to pKi (negative logarithm of dissociate constant, Ki) using the Cheng-Prusoff equation. […]

C[C@@H]1CN(CCNc2cnc3ccc(-c4nc[nH]c4-c4cc(Cl)ccc4F)nc3c2)C[C@H](C)N1 [compound of Formula I, 6-(5-(5-chloro-2-fluorophenyl)-1H-imidazol-4-yl)-N-(2-((3S,5R)-3,5-dimethylpiperazin-1-yl)ethyl)-1,5-naphthyridin-3-amine]
intestinal fibrosis [1]: slow or prevent intestinal fibrosis | intestinal fibrosis [2]: slow, halt or reverse intestinal fibrosis | Ki [3]: 0.0398 to 0.316 nM
